Data from PMC11930087, “Mobility of four structural regions drives isoform-specific properties of photoenzyme LPOR in plants” (The Journal of Biological Chemistry, 2025).
Where two headings read alike, the source gives them in different places.

Legend:
SlPOR3 [1] = biological target: T1, SlPOR3 (Solanum lycopersicum, UniProt A0A3Q7J565); experiment: […] K Pchlide fluorescence in darkness, F648/F635 ratio vs NADPH, hyperbolic fit; assay type: binding; details: lipid-free; 5 μM Pchlide, 15 μM LPOR, pH 7.1, room-temperature dark incubation; apparent parameter, exact value in supplement; read-out: KM^D
T1 construct: gene LOC101248079; transit peptide removed; pET15b
T1 sequence (A0A3Q7J565 63-397): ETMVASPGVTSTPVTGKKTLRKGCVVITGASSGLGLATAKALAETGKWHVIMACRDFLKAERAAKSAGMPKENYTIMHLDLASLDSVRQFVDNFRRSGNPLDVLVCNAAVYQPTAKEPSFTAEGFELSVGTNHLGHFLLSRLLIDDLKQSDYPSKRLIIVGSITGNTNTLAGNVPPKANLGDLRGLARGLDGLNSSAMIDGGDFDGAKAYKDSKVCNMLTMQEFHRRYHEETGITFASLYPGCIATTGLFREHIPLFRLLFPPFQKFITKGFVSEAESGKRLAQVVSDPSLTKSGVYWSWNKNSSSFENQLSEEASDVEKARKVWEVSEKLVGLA

SlPOR1 [2] = biological target: T2, SlPOR1 (Solanum lycopersicum, UniProt A0A3Q7HEX8); experiment: as above; assay type: binding; details: lipid-free; 5 μM Pchlide, 15 μM LPOR, pH 7.1, room-temperature dark incubation; apparent parameter, exact value in supplement; read-out: KM^D
T2 construct: gene POR2; transit peptide removed; pET15b
T2 sequence (A0A3Q7HEX8 65-399): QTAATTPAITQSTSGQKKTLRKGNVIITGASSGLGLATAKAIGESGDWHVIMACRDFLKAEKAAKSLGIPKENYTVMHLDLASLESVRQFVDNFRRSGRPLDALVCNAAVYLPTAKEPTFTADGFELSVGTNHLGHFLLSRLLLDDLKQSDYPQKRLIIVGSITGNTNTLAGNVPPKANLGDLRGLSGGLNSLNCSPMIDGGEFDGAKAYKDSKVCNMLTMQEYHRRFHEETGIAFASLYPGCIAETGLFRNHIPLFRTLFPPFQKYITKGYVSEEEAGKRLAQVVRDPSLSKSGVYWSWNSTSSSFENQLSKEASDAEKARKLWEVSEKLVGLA

PinPOR = biological target: T3, PinPOR (Pinus mugo, UniProt Q41202); experiment: biochemical; details: 5 uM Pchlide, 15 uM LPOR
T3 construct: transit peptide removed; pET15b
T3 sequence (Q41202 67-400): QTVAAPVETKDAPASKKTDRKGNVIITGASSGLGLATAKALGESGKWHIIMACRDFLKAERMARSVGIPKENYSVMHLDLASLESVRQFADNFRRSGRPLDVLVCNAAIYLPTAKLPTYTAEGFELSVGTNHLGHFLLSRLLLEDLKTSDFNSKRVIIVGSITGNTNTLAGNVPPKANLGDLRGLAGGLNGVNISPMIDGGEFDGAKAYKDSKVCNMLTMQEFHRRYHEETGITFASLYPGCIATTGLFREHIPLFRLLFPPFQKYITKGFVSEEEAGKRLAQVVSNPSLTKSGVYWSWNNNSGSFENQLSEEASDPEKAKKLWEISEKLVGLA
Description: (§1) (Figs. 3A, S2). […] The resulting plots resembled saturation curves, to which a hyperbolic function similar to the Michaelis–Menten equation could be fitted (Figs. 3B, S3, Materials and Methods). […] However, KM^L values were consistently lower than KM^D values. […] The addition of 400 μM OPT lipids lowered the KM^D constant for all isoforms, except for SlPOR1, SlPOR3, HaPOR1, HaPOR2, and PeaPOR, where the constant remained unchanged within error estimates. […] Shaded areas represent the SD between replicates. […] A fit of a modified Michaelis–Menten equation is shown, along with the graphical representation of KM^D (B) or KM^L (C). Spectra corresponding to the given F648/F635 values (B) or F Chlide/F Pchlide values (C) are shown on the right side of the plot. D, relationship between KM^D and KM^L for investigated isoforms. The overall distribution of data points is shown in gray. Error bars represent the uncertainty associated with the fitted constant KM^x. Closed symbols represent constants determined for samples not supplemented with lipids, while open symbols these determined in the presence of 400 μM OPT lipids. LPOR, light-dependent protochlorophyllide oxidoreductase; Pchlide, protochlorophyllide; Chlide, chlorophyllide.

HaPOR3 = biological target: T4, HaPOR3 (Helianthus annuus, UniProt A0A251UT40); experiment: biochemical; details: 400 uM OPT lipids, 5 uM Pchlide, 15 uM LPOR
T4 construct: gene POR; transit peptide removed; pET15b
T4 sequence (A0A251UT40 51-384): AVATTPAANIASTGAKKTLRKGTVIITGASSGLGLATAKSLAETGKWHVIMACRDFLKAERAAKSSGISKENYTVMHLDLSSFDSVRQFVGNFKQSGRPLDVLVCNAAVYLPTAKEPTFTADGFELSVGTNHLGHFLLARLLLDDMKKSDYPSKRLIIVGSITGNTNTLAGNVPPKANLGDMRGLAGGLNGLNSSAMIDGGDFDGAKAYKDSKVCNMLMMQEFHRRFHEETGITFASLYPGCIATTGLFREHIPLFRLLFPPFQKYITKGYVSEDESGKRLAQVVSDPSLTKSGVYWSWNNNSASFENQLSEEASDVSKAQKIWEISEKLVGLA
Description: as §1

SlPOR3 [3] = biological target: T1, SlPOR3; details: 5 uM Pchlide, 15 uM LPOR, binder
Description: as §1

SlPOR1 [4] = biological target: T2, SlPOR1; details: 5 uM Pchlide, 15 uM LPOR, binder
Description: as §1

HaPOR2 = biological target: T5, HaPOR2 (Helianthus annuus, UniProt A0A251TWA4); experiment: […] K Pchlide fluorescence in darkness, F648/F635 ratio vs NADPH, hyperbolic fit; assay type: binding; details: lipid-free; 5 μM Pchlide, 15 μM LPOR, pH 7.1, room-temperature dark incubation; apparent parameter, exact value in supplement; read-out: KM^D
T5 construct: gene PORA; transit peptide removed; pET15b
T5 sequence (A0A251TWA4 53-387): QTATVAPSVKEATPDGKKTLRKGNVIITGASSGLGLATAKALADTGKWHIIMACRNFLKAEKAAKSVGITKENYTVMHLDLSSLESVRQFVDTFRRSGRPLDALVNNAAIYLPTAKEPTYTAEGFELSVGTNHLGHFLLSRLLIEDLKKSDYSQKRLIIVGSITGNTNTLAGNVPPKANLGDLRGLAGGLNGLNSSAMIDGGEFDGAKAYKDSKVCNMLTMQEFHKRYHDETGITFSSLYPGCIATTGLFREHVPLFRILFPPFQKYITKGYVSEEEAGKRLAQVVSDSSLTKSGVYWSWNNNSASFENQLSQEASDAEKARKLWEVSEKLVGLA

- Kd (SlPOR3 [1]): < 10 µM
- Kd (SlPOR1 [2]): < 10 µM
- Michaelis constant, dark (KM^D) (PinPOR; 400 uM OPT lipids): 1.3 µM
- apparent Michaelis constant in dark (KM^D) (PinPOR; no lipids): 4.3 µM
- apparent Michaelis constant in dark (KM^D) (HaPOR3): 3.9 µM
- apparent Michaelis constant in dark (KM^D) (SlPOR3 [3]; 400 uM OPT lipids): 3 µM
- apparent KM (dark, KM^D) (SlPOR3 [3]; no lipids): 4.9 µM
- apparent Michaelis constant in the dark (KM^D) (SlPOR1 [4]; 400 uM OPT lipids): 7.2 µM
- apparent Michaelis constant in the dark (KM^D) (SlPOR1 [4]; no lipids): 8.6 µM
- Kd (HaPOR2): < 10 µM
SMILES: NC(=O)C1=CN([C@@H]2O[C@H](COP(=O)(O)OP(=O)(O)OC[C@H]3O[C@@H](n4cnc5c(N)ncnc54)[C@H](OP(=O)(O)O)[C@@H]3O)[C@@H](O)[C@H]2O)C=CC1 [NADPH]
